Results from patent US10975394B2, “Recombinant microorganisms for enhanced production of mevalonate, isoprene, and isoprenoids” (Danisco US Inc., priority 2011, dated 2021).
Read-outs that look alike come from different tables or passages of the source. Blank lines part the entries; values can stand above or below the compound they belong to.

Columns and labels:
[1] = target: M. mazei mevalonate kinase (Methanosarcina mazei, UniProt Q8PW39); experiment: Mevalonate kinase coupled spectrophotometric kinetic and inhibition assay; format: biochemical; details: for Vmax / α / kcat / Ka/b: random bireactant system model; for kcat: 80 nM purified enzyme, varying mevalonate and ATP; for Ka/b: Ka(Mev), Kb(ATP)
Chain of M. mazei mevalonate kinase (Q8PW39 entry or part of it): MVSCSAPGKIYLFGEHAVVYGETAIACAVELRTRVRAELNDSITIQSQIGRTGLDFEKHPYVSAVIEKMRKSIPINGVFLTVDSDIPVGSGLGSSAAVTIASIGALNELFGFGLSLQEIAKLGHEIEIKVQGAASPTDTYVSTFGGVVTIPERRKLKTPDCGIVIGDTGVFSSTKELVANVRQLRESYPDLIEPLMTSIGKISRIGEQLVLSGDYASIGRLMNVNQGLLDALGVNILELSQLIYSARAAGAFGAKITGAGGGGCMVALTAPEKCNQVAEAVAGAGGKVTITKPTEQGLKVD

[2] = target: M. burtonii mevalonate kinase (Methanococcoides burtonii, UniProt Q12TI0); experiment: as above; format: biochemical; details: for kcat: 40 nM purified enzyme, varying mevalonate and ATP
Chain of M. burtonii mevalonate kinase (Q12TI0 entry or part of it): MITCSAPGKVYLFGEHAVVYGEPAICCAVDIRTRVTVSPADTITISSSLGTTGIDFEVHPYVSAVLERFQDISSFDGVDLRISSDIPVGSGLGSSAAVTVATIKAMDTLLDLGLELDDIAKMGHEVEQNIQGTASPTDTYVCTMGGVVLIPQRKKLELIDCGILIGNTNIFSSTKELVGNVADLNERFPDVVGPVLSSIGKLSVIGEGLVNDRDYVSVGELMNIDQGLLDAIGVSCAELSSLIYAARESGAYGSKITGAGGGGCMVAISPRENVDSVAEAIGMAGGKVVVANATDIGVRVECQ

[3] = test system: engineered E. coli strains; format: cell-based
[4] = inhibitor added at various concentrations to the reaction mix, read-out: Ki

SMILES: CC(O)(CCO)CC(=O)O (stereo not shown) [Mevalonate, mevalonate]
- Vmax [1]: 1.46 µM/s
- α [1]: 0.23
- kcat [1]: 18.3 s⁻¹
- Ka/b [1]: 397 µM
- Vmax ([2]; random bireactant system model): 1.78 µM/s
- α ([2]; random bireactant system model): 0.52
- kcat ([2]; random bireactant system model): 44.4 s⁻¹
- Ka/b ([2]; random bireactant system model, Ka(Mev), Kb(ATP)): 391 µM
- growth inhibition by mevalonate ([3]; strain MCM2131, mevalonate between 0 and 16 mM): not inhibited
- growth inhibition by mevalonate ([3]; strains MCM2125, MCM2127 and MCM2130, mevalonate 0-16 mM): not inhibited

SMILES: CC(C)=CCC/C(C)=C/COP(=O)(O)OP(=O)(O)O [GPP, geranyl pyrophosphate, reference compound]
- Ki [1, 4]: > 5 mM
- Ki [2, 4]: > 5 mM

SMILES: CC(C)=CCOP(=O)(O)OP(=O)(O)O [DMAPP, dimethylallyl diphosphate, reference compound]
- Ki [1]: > 5 mM
- Ki [2]: > 5 mM

SMILES: Nc1ncnc2c1ncn2[C@@H]1O[C@H](COP(=O)(O)OP(=O)(O)OP(=O)(O)O)[C@@H](O)[C@H]1O [ATP, Adenosine triphosphate]
- Vmax [1]: 2.14 µM/s
- α [1]: 1.62
- kcat [1]: 26.8 s⁻¹
- Ka/b [1]: 460 µM
- Ka/b [2]: 212 µM
- Vmax ([2]; random bireactant system model): 2.97 µM/s
- α ([2]; random bireactant system model): 3.74
- kcat ([2]; random bireactant system model): 74.3 s⁻¹

Second part, the compound after the results:

- Ki [1]: > 5 mM
- Ki [2]: > 5 mM
SMILES: C=C(C)CCO[P@@](=O)(O)OP(=O)(O)O [IPP, isopentenyl pyrophosphate, reference compound]

- Ki [1, 4]: > 3 mM
- Ki [2, 4]: > 3 mM
SMILES: CC(O)(CCOP(=O)(O)O)CC(=O)O (stereo not shown) [MVP, reference compound]

- Ki [1, 4]: > 1 mM
- Ki [2, 4]: > 5 mM
SMILES: C[C@@](O)(CCOP(=O)(O)OP(=O)(O)O)CC(=O)O [MVPP, reference compound]
